Reference: US6255098A, “DS11 (KCTC 0231BP), novel Bacillus sp. strain and novel phytase produced by it” (priority 1996, dated 2001)

Target: T1, novel phytase produced by Bacillus sp. DS11 (KCTC 0231BP), N-terminal amino acid sequence SEQ ID NO: 1 (Bacillus sp., UniProt O66037)
T1 construct: made in house; host or cells: Bacillus sp; DS11 (KCTC 0231BP), native producer strain; enzyme purified from culture supernatant
Test: biochemical
Format: biochemical
Conditions: for enzyme activity with additive (Non-addition = 100): 30 min
Experimental: The potency of produced enzyme was measured as follows: By using a substrate, comprising 2 mM phytic acid sodium salts and 2 mM CaCl2 in 0.1 M Tris buffer solution (pH 7.0), the enzyme was reacted at 37° C. for 30 minutes to measure the amount of phosphoric acid generated. One unit of the enzymatic potency is equivalent to the enzymatic amount degrading 1 μ mol of inorganic phosphate per 1 minute. As a result of said measurement, the novel enzyme has the enzymatic potency of 0.3 unit per protein mg. The maximum amount of enzyme in fermentation yielding 0.6 unit/mg was obtained when 30 l of strains, a working volume, was charged to a 50 l fermenter and cultivated at 37° C. for 48 hours under the following conditions: air influx--0.8 vvm; stirring rate--150 rpm.
2 l of novel strain solution, cultivated according to the procedure as described in said Example, was centrifuged for 15 minutes. Then, the supernatant solution was saturated with 50% acetone to precipitate proteins and the crude enzyme solution passed through dialysis membrane was purified on a column containing phenyl sepharose CL-4B, Resource S and superose 12 HR 10/30 (all of which are manufactured by Pharmacia, Sweden) so as to isolate the phytase enzyme only. The analytical results by said column are represented in the attached drawing FIG. 2.

[1] = 0.5 h, pH 7, read-out: enzyme activity with additive (Non-addition = 100)

T1 sequence (O66037 31-383): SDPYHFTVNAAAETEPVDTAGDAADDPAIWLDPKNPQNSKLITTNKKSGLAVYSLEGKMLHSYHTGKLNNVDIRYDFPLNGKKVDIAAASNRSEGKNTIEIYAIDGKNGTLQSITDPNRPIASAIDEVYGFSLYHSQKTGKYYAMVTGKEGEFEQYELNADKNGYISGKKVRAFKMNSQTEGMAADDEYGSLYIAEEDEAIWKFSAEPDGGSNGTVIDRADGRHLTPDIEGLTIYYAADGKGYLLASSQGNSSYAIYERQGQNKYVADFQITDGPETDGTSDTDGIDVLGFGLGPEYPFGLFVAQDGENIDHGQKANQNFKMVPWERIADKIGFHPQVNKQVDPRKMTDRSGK

Row | SMILES | inhibition of enzyme activity (in words) | remaining activity at 1000 µM [1] [%] | remaining activity at 5000 µM [1] [%] | enzyme activity with additive (Non-addition = 100) (additive concentration 1 mM) | enzyme activity with additive (Non-addition = 100) (additive concentration 5 mM)
1 | O=C(O)CN(CCN(CC(=O)O)CC(=O)O)CC(=O)O [EDTA] | inhibited the entire enzyme activity | 7.5 | 7.6 | – | –
2 | O=S(=O)(F)Cc1ccccc1 [PMSF] | – | – | – | 86 | 88
